According to EP4806899A1, “FUSED RING DERIVATIVE, PREPARATION METHOD THEREFOR AND USE THEREOF IN MEDICINE” (Shanghai Qilu Pharmaceutical Research and Development …, priority 2023, dated 2025):

How the values were obtained:
[1] = Pharmacokinetic determination in monkeys after gavage administration (P.O.); type: in vivo, Cynomolgus monkeys (Macaca fascicularis); conditions: cynomolgus monkey, po, 1 mg/kg, plasma
Method: (§1) Cynomolgus monkeys (Macaca fascicularis) were used as test animals to study the pharmacokinetic behavior of the compounds of the present disclosure in plasma following gavage administration (P.O.). Plasma samples were collected at specific time points, compound concentrations in plasma were detected by LC-MS/MS, and pharmacokinetic parameters were calculated to reflect the pharmacokinetics in cynomolgus monkeys.
Cynomolgus monkeys, male, Ankaiyibo (Zhanjiang) Biotechnology Co., Ltd.
After administration to cynomolgus monkeys, venous blood samples of 0.3 mL were collected at 0.25, 0.5, 1, 2, 4, 8, and 24 hours and placed in EDTA-K2 test tubes. Plasma was separated by centrifugation at 4 °C, 4000 g for 5 minutes and stored at -80 °C.
• 1) 50 µL of plasma sample was precipitated by adding 200 µL of acetonitrile, vortex mixed, and centrifuged for 15 minutes. • 2) The processed supernatant was diluted with water and analyzed by LC/MS/MS to determine the concentration of the test compound.
(§2) Pharmacokinetic parameters were calculated using WinNonlin 8.3. Cmax represents the maximum plasma concentration, T1/2 represents the terminal elimination half-life, MRTInf represents the mean residence time, and AUC represents the area under the plasma concentration-time curve. Table 6 Pharmacokinetic Parameters of the Compounds of the Present Disclosure in Monkeys

[2] = biological target: T1, human CYP11B1 enzyme (Homo sapiens, UniProt P15538); experiment: Enzyme inhibition activity assay in G402 cells stably expressing human CYP11B1 (cortisol production from 11-DC, LC/MS); type: cell-based; conditions: 1 µM 11-DC, 16 hours, cortisol detected
T1 construct: the ORF of human CYP11B1 or CYP11B2 were transfected into G402 cells; expressed in transfected cells
T1 sequence (P15538 25-503): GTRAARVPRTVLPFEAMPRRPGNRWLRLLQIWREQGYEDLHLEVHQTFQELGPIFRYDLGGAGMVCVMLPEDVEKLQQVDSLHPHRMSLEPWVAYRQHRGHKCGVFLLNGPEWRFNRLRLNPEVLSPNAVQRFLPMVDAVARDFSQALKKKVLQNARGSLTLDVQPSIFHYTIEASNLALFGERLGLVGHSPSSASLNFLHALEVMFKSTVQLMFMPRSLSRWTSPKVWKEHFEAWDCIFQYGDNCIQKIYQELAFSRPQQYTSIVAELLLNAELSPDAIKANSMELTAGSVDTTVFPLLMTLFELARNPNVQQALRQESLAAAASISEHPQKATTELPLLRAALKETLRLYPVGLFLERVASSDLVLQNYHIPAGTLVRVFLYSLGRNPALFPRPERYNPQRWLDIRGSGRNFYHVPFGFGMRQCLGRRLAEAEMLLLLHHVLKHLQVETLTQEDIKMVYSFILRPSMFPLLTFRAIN
Procedure, shortened: (§3)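 G402 cells stably expressing human CYP11B2 or CYP11B1, preincubated 1 h with inhibitor in DMEM/F12 plus 2.5% charcoal-stripped FCS, then 16 h with 1 µM 11-DOC or 1 µM 11-DC. Aldosterone or cortisol quantified by LC/MS; IC50 from four-parameter logistic fit versus uninhibited control.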

[3] = biological target: T2, human CYP11B2 enzyme (Homo sapiens, UniProt P19099); experiment: Enzyme inhibition activity assay in G402 cells stably expressing human CYP11B2 (aldosterone production from 11-DOC, LC/MS); type: cell-based; conditions: 1 µM 11-DOC, 16 hours, aldosterone detected
T2 construct: the ORF of human CYP11B1 or CYP11B2 were transfected into G402 cells; expressed in transfected cells
T2 sequence (P19099 25-503): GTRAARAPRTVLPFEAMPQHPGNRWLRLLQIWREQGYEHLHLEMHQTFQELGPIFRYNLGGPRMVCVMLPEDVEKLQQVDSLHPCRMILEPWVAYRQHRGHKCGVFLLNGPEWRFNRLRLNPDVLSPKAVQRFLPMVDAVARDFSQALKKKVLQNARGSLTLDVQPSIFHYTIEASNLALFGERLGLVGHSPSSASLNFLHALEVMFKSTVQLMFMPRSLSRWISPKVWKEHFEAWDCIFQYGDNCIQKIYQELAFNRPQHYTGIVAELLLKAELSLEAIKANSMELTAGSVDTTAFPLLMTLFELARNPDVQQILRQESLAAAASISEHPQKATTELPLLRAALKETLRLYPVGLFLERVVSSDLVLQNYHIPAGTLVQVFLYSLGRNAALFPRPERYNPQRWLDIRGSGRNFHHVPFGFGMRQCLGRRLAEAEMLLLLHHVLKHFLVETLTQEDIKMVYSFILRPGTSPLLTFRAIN
Procedure, shortened: as §3

[4] = added to existing treatment; within 3 months of treatment; cited from earlier work
[5] = in vivo; conditions: male, Sprague-Dawley, rat, plasma, po, 10 mg/kg
Method: Mice and rats were used as test animals to study the pharmacokinetic behavior of the compounds of the present disclosure in plasma following gavage administration (P.O.). Plasma samples were collected at specific time points, compound concentrations in plasma were detected by LC-MS/MS, and pharmacokinetic parameters were calculated to evaluate the pharmacokinetics.
Pharmacokinetic parameters were calculated using WinNonlin 8.3. […] Cmax represents the maximum plasma concentration, T1/2 represents the terminal elimination half-life, MRTInf represents the mean residence time, and AUC represents the area under the plasma concentration-time curve.

[6] = Pharmacokinetic determination in mice after gavage administration (P.O.); type: in vivo; conditions: male, CD-1, mouse, po, 10 mg/kg, plasma
Method: as §1, with “Mice and rats” for “Cynomolgus monkeys (Macaca fascicularis)”, “evaluate” for “reflect”, “pharmacokinetics.” for “pharmacokinetics in cynomolgus monkeys.”
• Mice, CD-1, male, Zhejiang Vital River Laboratory Animal Technology Co., Ltd. • Rats, Sprague-Dawley, male, Zhejiang Vital River Laboratory Animal Technology Co., Ltd., Shanghai Jihui Experimental Animal Breeding Co., Ltd.
After administration to mice and rats, venous blood samples of 0.03 mL and 0.2 mL, respectively, were collected at 0.0833 (IV), 0.25, 0.5, 1, 2, 4, 8, and 24 hours and placed in EDTA-K2 test tubes. Plasma was separated by centrifugation at 4 °C, 4000 g for 5 minutes and stored at -80 °C.
• 1) 10 µL of plasma sample was precipitated by adding 200 µL of acetonitrile, vortex mixed, and centrifuged for 15 minutes. • 2) The processed supernatant was diluted with water and analyzed by LC/MS/MS to determine the concentration of the test compound.
as §2, with “8.3. The pharmacokinetic parameters for mice P.O. are shown in Table 4, and for rats P.O. in Table 5.” for “8.3.”, “4” for “6”, “Mice” for “Monkeys”

`CCC(=O)N[C@@H]1CCOc2c(-c3ccc4c(c3)cc(C#N)n4C)cncc21` [Compound A10-P2] gave a Cmax ([1]; in vivo) of 3.28 µM, an MRT inf ([1]; in vivo) of 9.14 h and a half-life ([1]; in vivo) of 8.48 h. For the same molecule, the AUC(0-t) at 24 h ([1]; in vivo, read-out: AUC0-24) was 29.1 µM·h, the IC50 [2] was 316 nM and the IC50 [3] was 1.8 nM.

In the case of `CC(=O)S[C@@H]1CC2=CC(=O)CC[C@]2(C)[C@H]2CC[C@@]3(C)[C@@H](CC[C@@]34CCC(=O)O4)[C@H]12` [spironolactone], the “patients with resistant hypertension achieving effective control of blood pressure (systolic blood pressure <135 mm Hg)” value [4] is given as 60%.

`CCC(=O)N[C@@H]1CCCc2c(-c3ccc4c(c3)CCC(=O)N4C)cncc21` [Control Compound, reference compound] gave a Cmax ([1]; male) of 0.834 µM, an AUC(0-t) ([1]; male, read-out: AUC0-24) of 6 µM·h and an AUC(0-t) [5] of 109 µM·h. For the same molecule, the Cmax [5] was 11.4 µM, the MRT inf [5] was 6.41 h and the half-life [5] was 4.31 h. It also gave a Cmax [6] of 12.2 µM, an MRT inf [6] of 3.59 h and a half-life [6] of 1.86 h. It also gave an AUC(0-t) ([6]; read-out: AUC0-24) of 57.3 µM·h.
